By pIC50 is commonly meant −log10 of the IC50, conventionally taken in molar units.

Common to all, as to test: AlphaScreen proximity-based integrin binding assay with TGF-b1 LAP
Common to all, as to details: values given as ranges
In general terms: In Alpha technology, singlet oxygen from a donor bead excites a nearby acceptor bead.

One experiment has as its target human integrin αVβ1 (Homo sapiens, UniProt P05556+P06756). A digest of the protocol: (§1)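 Purified human integrin incubated with compound, TGF-b1 LAP, biotinylated anti-LAP antibody and acceptor beads for 2 h, then streptavidin donor beads 30 min, room temperature, in 50 mM Tris-HCl pH 7.5, 0.1% BSA, 1 mM CaCl2/MgCl2. AlphaScreen signal (680 nm excitation, 520-620 nm emission); IC50 by four-parameter fit.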

The next experiment addresses human integrin αVβ6 (Homo sapiens, UniProt P06756+P18564). A digest of the protocol: as §1
The target of a further experiment is human integrin αVβ8 (Homo sapiens, UniProt P06756+P26012). A digest of the protocol: as §1
human integrin αVβ8, sequence (P06756 31-992 limits assumed): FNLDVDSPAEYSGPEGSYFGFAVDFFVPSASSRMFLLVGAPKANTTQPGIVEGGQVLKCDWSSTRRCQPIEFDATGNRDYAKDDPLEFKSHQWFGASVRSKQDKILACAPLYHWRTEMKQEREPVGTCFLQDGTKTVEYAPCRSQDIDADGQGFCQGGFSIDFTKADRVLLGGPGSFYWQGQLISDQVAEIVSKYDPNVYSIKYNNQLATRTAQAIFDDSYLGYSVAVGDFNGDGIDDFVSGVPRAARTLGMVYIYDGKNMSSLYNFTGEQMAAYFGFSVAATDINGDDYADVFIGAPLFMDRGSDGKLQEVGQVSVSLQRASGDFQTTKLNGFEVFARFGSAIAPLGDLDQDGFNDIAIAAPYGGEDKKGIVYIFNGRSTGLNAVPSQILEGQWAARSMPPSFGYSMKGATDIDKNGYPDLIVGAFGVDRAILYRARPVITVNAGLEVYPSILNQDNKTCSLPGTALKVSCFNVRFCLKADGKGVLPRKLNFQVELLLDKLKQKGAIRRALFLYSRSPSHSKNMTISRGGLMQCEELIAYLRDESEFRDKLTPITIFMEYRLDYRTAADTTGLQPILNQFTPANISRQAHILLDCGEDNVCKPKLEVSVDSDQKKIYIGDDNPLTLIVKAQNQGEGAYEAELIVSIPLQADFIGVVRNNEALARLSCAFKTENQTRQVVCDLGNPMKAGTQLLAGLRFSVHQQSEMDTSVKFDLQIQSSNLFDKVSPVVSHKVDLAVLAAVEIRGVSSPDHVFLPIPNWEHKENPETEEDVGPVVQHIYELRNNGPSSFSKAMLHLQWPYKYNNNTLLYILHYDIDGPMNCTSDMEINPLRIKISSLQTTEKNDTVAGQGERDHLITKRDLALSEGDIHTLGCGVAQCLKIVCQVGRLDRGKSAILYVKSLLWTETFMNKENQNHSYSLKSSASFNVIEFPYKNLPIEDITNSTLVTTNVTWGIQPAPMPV
human integrin αVβ8, sequence (P26012 43-684 limits assumed): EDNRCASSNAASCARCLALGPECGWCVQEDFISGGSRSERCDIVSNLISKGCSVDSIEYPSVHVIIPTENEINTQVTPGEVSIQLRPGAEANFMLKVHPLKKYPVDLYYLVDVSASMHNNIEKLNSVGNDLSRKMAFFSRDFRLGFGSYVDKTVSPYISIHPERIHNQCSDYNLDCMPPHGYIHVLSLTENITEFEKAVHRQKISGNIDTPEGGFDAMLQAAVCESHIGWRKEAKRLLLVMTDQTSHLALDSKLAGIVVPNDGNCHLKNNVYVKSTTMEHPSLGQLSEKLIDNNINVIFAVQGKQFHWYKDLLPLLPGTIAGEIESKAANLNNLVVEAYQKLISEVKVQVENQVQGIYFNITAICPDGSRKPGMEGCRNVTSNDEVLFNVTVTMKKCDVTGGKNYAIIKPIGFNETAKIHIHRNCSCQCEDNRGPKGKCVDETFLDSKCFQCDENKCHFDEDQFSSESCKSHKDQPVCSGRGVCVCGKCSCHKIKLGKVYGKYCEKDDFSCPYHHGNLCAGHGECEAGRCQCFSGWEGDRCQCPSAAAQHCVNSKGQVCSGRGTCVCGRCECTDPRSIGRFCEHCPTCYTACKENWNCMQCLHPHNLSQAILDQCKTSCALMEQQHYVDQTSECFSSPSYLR

pIC50: −log10 of the molar value.

human integrin αVβ6, sequence (P06756 31-992 limits assumed): as the sequence (P06756 31-992 limits assumed) above
human integrin αVβ6, sequence (P18564 22-707 limits assumed): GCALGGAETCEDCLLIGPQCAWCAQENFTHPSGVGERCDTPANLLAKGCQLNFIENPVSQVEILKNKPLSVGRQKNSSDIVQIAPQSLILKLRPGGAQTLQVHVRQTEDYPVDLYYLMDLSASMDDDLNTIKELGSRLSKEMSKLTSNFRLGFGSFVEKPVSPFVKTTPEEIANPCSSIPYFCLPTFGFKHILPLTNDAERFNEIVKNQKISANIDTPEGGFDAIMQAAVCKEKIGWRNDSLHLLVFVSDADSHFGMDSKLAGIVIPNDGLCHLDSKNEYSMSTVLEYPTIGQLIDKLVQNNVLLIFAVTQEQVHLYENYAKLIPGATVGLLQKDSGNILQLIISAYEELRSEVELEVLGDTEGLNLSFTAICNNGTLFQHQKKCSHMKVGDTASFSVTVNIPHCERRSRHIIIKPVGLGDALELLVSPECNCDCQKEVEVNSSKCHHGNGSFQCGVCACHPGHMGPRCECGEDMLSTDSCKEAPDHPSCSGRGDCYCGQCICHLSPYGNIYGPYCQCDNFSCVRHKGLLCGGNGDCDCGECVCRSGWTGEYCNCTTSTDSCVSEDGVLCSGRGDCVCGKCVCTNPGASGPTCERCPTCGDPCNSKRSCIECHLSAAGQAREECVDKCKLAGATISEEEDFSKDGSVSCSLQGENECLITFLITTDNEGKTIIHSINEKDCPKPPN
human integrin αVβ1, sequence (P06756 31-992 limits assumed): as the sequence (P06756 31-992 limits assumed) above
human integrin αVβ1, sequence (P05556 21-728 limits assumed): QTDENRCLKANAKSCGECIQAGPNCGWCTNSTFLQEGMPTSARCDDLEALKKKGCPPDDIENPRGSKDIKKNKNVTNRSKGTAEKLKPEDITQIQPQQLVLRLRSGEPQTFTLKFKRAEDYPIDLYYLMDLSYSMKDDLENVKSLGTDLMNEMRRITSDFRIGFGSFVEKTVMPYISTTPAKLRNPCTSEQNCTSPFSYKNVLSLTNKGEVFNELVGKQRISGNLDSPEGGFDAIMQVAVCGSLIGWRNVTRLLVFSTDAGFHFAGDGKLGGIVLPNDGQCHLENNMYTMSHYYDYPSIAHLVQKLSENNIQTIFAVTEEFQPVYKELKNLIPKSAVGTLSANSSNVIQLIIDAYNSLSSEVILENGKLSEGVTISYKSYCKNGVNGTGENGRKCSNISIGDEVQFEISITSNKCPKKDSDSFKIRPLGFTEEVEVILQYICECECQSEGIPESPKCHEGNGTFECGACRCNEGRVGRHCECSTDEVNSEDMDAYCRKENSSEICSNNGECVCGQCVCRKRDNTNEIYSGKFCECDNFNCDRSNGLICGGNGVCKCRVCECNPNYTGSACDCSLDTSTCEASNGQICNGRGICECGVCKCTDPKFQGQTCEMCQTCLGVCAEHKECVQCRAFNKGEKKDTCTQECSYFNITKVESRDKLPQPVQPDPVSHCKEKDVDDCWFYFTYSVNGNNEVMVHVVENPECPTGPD

Consider `O=C(O)[C@H](CCOCCCCc1ccc2c(n1)NCCC2)NC(=O)C1(c2ncccc2C2CC2)CC1` [Compound 58, N-(1-(3-cyclopropylpyridin-2-yl)cyclopropane-1-carbonyl)-O-(4-(5,6,7,8-tetrahydro-1,8-naphthyridin-2-yl)butyl)-L-homoserine], for which the negative-log IC50 (pIC50) was > 7.30 on human integrin αVβ1, ≤ 6.30 on human integrin αVβ6 and 6.60 to 6.82 at human integrin αVβ8.

For the compound `O=C(O)[C@H](CCOCCCCc1ccc2c(n1)NCCC2)NC(=O)C1(c2cncnc2C(F)F)CC1` [Compound 59, N-(1-(4-(difluoromethyl)pyrimidin-5-yl)cyclopropane-1-carbonyl)-O-(4-(5,6,7,8-tetrahydro-1,8-naphthyridin-2-yl)butyl)-L-homoserine], the results for the negative logarithm of the IC50 (pIC50) on human integrin αVβ1, at human integrin αVβ6 and at human integrin αVβ8 were > 7.30, ≤ 6.30 and > 7.30, respectively.

For `Cc1nc(C)c(C2(C(=O)N[C@@H](CCOCCCCc3ccc4c(n3)NCCC4)C(=O)O)CC2)c(Cl)n1` [Compound 60, N-(1-(4-chloro-2,6-dimethylpyrimidin-5-yl)cyclopropane-1-carbonyl)-O-(4-(5,6,7,8-tetrahydro-1,8-naphthyridin-2-yl)butyl)-L-homoserine], the pIC50 at human integrin αVβ1 was > 7.30; at human integrin αVβ6, ≤ 6.30; at human integrin αVβ8 it was > 7.30.

With `COc1ncnc(C)c1C1(C(=O)N[C@@H](CCOCCCCc2ccc3c(n2)NCCC3)C(=O)O)CC1` [Compound 61, N-(1-(4-methoxy-6-methylpyrimidin-5-yl)cyclopropane-1-carbonyl)-O-(4-(5,6,7,8-tetrahydro-1,8-naphthyridin-2-yl)butyl)-L-homoserine], the pIC50 at human integrin αVβ1 was > 7.30; at human integrin αVβ6 it was ≤ 6.30; on human integrin αVβ8 it was > 7.30.

With `COc1ncnc(Cl)c1C1(C(=O)N[C@@H](CCOCCCCc2ccc3c(n2)NCCC3)C(=O)O)CC1` [Compound 62, N-(1-(4-chloro-6-methoxypyrimidin-5-yl)cyclopropane-1-carbonyl)-O-(4-(5,6,7,8-tetrahydro-1,8-naphthyridin-2-yl)butyl)-L-homoserine], the negative logarithm of the IC50 (pIC50) on human integrin αVβ1 is > 7.30; at human integrin αVβ6 it was ≤ 6.30; at human integrin αVβ8, > 7.30.

On to `O=C(O)[C@H](CCOCCCCc1ccc2c(n1)NCCC2)NC(=O)C1(c2c(Cl)nc[nH]c2=O)CC1` [Compound 63, N-(1-(4-chloro-6-oxo-1,6-dihydropyrimidin-5-yl)cyclopropane-1-carbonyl)-O-(4-(5,6,7,8-tetrahydro-1,8-naphthyridin-2-yl)butyl)-L-homoserine], for which the pIC50 was 6.60 to 6.82 at human integrin αVβ1, ≤ 6.30 at human integrin αVβ6 and 6.82 to 7.30 at human integrin αVβ8.

For `O=C(O)[C@H](CCOCCCCc1ccc2c(n1)NCCC2)NC(=O)C1(n2cncc2C(F)F)CC1` [Compound 64, N-(1-(5-(difluoromethyl)-1H-imidazol-1-yl)cyclopropane-1-carbonyl)-O-(4-(5,6,7,8-tetrahydro-1,8-naphthyridin-2-yl)butyl)-L-homoserine], the values for the pIC50 on human integrin αVβ1, at human integrin αVβ6 and at human integrin αVβ8 were > 7.30, ≤ 6.30 and 6.82 to 7.30, respectively.

In the case of `O=C(O)[C@H](CCOCCCCc1ccc2c(n1)NCCC2)NC(=O)C1(n2c(Cl)cccc2=O)CC1` [Compound 65, N-(1-(6-chloro-2-oxopyridin-1(2H)-yl)cyclopropane-1-carbonyl)-O-(4-(5,6,7,8-tetrahydro-1,8-naphthyridin-2-yl)butyl)-L-homoserine], the negative-log IC50 (pIC50) at human integrin αVβ1 was > 7.30; on human integrin αVβ6, ≤ 6.30; on human integrin αVβ8 it was > 7.30.

In the case of `O=C(O)[C@H](CCOCCCCc1ccc2c(n1)NCCC2)NC(=O)C1(c2[nH]c(=O)ccc2Cl)CC1` [Compound 66, N-(1-(3-chloro-6-oxo-1,6-dihydropyridin-2-yl)cyclopropane-1-carbonyl)-O-(4-(5,6,7,8-tetrahydro-1,8-naphthyridin-2-yl)butyl)-L-homoserine], the pIC50 is > 7.30 at human integrin αVβ1, ≤ 6.30 at human integrin αVβ6 and > 7.30 on human integrin αVβ8.

`O=C(O)[C@H](CCOCCCCc1ccc2c(n1)NCCC2)NC(=O)C1(c2nccnc2C(F)(F)F)CC1` [Compound 67, O-(4-(5,6,7,8-tetrahydro-1,8-naphthyridin-2-yl)butyl)-N-(1-(3-(trifluoromethyl)pyrazin-2-yl)cyclopropane-1-carbonyl)-L-homoserine]: the negative logarithm of the IC50 (pIC50) is > 7.30 at human integrin αVβ1, ≤ 6.30 at human integrin αVβ6 and > 7.30 on human integrin αVβ8.

Take `O=C(O)[C@H](CCOCCCCc1ccc2c(n1)NCCC2)NC(=O)C1(c2c(Cl)cc[nH]c2=O)CC1` [Compound 68, N-(1-(4-chloro-2-oxo-1,2-dihydropyridin-3-yl)cyclopropane-1-carbonyl)-O-(4-(5,6,7,8-tetrahydro-1,8-naphthyridin-2-yl)butyl)-L-homoserine]: the negative-log IC50 (pIC50) at human integrin αVβ1 is > 7.30; at human integrin αVβ6, ≤ 6.30; at human integrin αVβ8, > 7.30.

Turning to `O=C(O)[C@H](CCOCCCCc1ccc2c(n1)NCCC2)NC(=O)C1(n2nc(Cl)cc2Cl)CC1` [Compound 69, N-(1-(3,5-dichloro-1H-pyrazol-1-yl)cyclopropane-1-carbonyl)-O-(4-(5,6,7,8-tetrahydro-1,8-naphthyridin-2-yl)butyl)-L-homoserine], the pIC50 on human integrin αVβ1 was > 7.30; on human integrin αVβ6, 6.30 to 6.60; at human integrin αVβ8, > 7.30.

As to `O=C(O)[C@H](CCOCCCCc1ccc2c(n1)NCCC2)NC(=O)C1(n2ccnc2C(F)(F)F)CC1` [Compound 70, O-(4-(5,6,7,8-tetrahydro-1,8-naphthyridin-2-yl)butyl)-N-(1-(2-(trifluoromethyl)-1H-imidazol-1-yl)cyclopropane-1-carbonyl)-L-homoserine], the pIC50 is > 7.30 on human integrin αVβ1, ≤ 6.30 on human integrin αVβ6 and > 7.30 on human integrin αVβ8.

Turning to `O=C(O)[C@H](CCOCCCCc1ccc2c(n1)NCCC2)NC(=O)C1(c2[nH]ncc2Cl)CC1` [Compound 71, N-(1-(4-chloro-1H-pyrazol-5-yl)cyclopropane-1-carbonyl)-O-(4-(5,6,7,8-tetrahydro-1,8-naphthyridin-2-yl)butyl)-L-homoserine], the pIC50 at human integrin αVβ1 is > 7.30; on human integrin αVβ6 it was ≤ 6.30; at human integrin αVβ8, > 7.30.

Take `Cc1cc(Cl)n(C2(C(=O)N[C@@H](CCOCCCCc3ccc4c(n3)NCCC4)C(=O)O)CC2)n1` [Compound 72, N-(1-(5-chloro-3-methyl-1H-pyrazol-1-yl)cyclopropane-1-carbonyl)-O-(4-(5,6,7,8-tetrahydro-1,8-naphthyridin-2-yl)butyl)-L-homoserine]: the pIC50 on human integrin αVβ1 was > 7.30; on human integrin αVβ6 it was ≤ 6.30; on human integrin αVβ8, > 7.30.

Turning to `Cc1ncc(Cl)c(C2(C(=O)N[C@@H](CCOCCCCc3ccc4c(n3)NCCC4)C(=O)O)CC2)n1` [Compound 73, N-(1-(5-chloro-2-methylpyrimidin-4-yl)cyclopropane-1-carbonyl)-O-(4-(5,6,7,8-tetrahydro-1,8-naphthyridin-2-yl)butyl)-L-homoserine], the results for the pIC50 at human integrin αVβ1, at human integrin αVβ6 and at human integrin αVβ8 were > 7.30, ≤ 6.30 and > 7.30, respectively.

Turning to `O=C(O)[C@H](CCOCCCCc1ccc2c(n1)NCCC2)NC(=O)C1(c2cn[nH]c2Cl)CC1` [Compound 74, N-(1-(5-chloro-1H-pyrazol-4-yl)cyclopropane-1-carbonyl)-O-(4-(5,6,7,8-tetrahydro-1,8-naphthyridin-2-yl)butyl)-L-homoserine], the pIC50 is > 7.30 at human integrin αVβ1, ≤ 6.30 on human integrin αVβ6 and > 7.30 on human integrin αVβ8.

`Cn1cc(C#N)c(C2(C(=O)N[C@@H](CCOCCCCc3ccc4c(n3)NCCC4)C(=O)O)CC2)n1` [Compound 75, N-(1-(4-cyano-1-methyl-1H-pyrazol-3-yl)cyclopropane-1-carbonyl)-O-(4-(5,6,7,8-tetrahydro-1,8-naphthyridin-2-yl)butyl)-L-homoserine]: the results for the negative-log IC50 (pIC50) at human integrin αVβ1, at human integrin αVβ6 and at human integrin αVβ8 were > 7.30, ≤ 6.30 and > 7.30, respectively.

As for `O=C(O)[C@H](CCOCCCCc1ccc2c(n1)NCCC2)NC(=O)C1(c2c(Cl)cn[nH]c2=O)CC1` [Compound 76, N-(1-(5-chloro-3-oxo-2,3-dihydropyridazin-4-yl)cyclopropane-1-carbonyl)-O-(4-(5,6,7,8-tetrahydro-1,8-naphthyridin-2-yl)butyl)-L-homoserine], the pIC50 at human integrin αVβ1 is > 7.30; at human integrin αVβ6, ≤ 6.30; at human integrin αVβ8, > 7.30.

Turning to `Cn1cc(C(F)(F)F)c(C2(C(=O)N[C@@H](CCOCCCCc3ccc4c(n3)NCCC4)C(=O)O)CC2)n1` [Compound 77, N-(1-(1-methyl-4-(trifluoromethyl)-1H-pyrazol-3-yl)cyclopropane-1-carbonyl)-O-(4-(5,6,7,8-tetrahydro-1,8-naphthyridin-2-yl)butyl)-L-homoserine], the pIC50 on human integrin αVβ1 was > 7.30; at human integrin αVβ6 it was ≤ 6.30; on human integrin αVβ8, > 7.30.

As for `N#Cc1c[nH]nc1C1(C(=O)N[C@@H](CCOCCCCc2ccc3c(n2)NCCC3)C(=O)O)CC1` [Compound 78, N-(1-(4-cyano-1H-pyrazol-3-yl)cyclopropane-1-carbonyl)-O-(4-(5,6,7,8-tetrahydro-1,8-naphthyridin-2-yl)butyl)-L-homoserine], the results for the pIC50 at human integrin αVβ1, on human integrin αVβ6 and at human integrin αVβ8 were > 7.30, ≤ 6.30 and > 7.30, respectively.

On to `O=C(O)[C@H](CCOCCCCc1ccc2c(n1)NCCC2)NC(=O)C1(c2[nH]cnc2Cl)CC1` [Compound 79, N-(1-(4-chloro-1H-imidazol-5-yl)cyclopropane-1-carbonyl)-O-(4-(5,6,7,8-tetrahydro-1,8-naphthyridin-2-yl)butyl)-L-homoserine], for which the negative-log IC50 (pIC50) is > 7.30 on human integrin αVβ1, ≤ 6.30 on human integrin αVβ6 and > 7.30 on human integrin αVβ8.

The record behind these values is patent publication US20240245682A1, “ALPHA-V-BETA-8 INTEGRIN INHIBITORS AND USES THEREOF” (Pliant Therapeutics, Inc., priority 2022, published 2024).
